# Several values for one entry are separate records, joined by “and”; a condition that tells them apart may be missing. Identical values can stand only once. Where a SMILES comes first, the peptide text is derived from it. Bridges are numbered along the chain shown (N, C = ends).
# Tests used:
# Type in all cases: cell-based
# E. coli 521ZQE = settings: source pig tissue, three independent experiments
# Description: (§1) The minimum inhibitory concentration (MIC) refers to the lowest concentration that can produce a significant hindrance to bacterial growth in a drug sensitivity test by adopting a broth dilution, with certain refinements and modifications based on the previous description ([25], [26]). In short, MccJ25 was dissolved in sterilized distilled water (SDW), serial 2-fold dilutions were prepared in Mueller-Hinton broth (MHB) through a 96-well microtiter plate, and the final concentration of MccJ25 was maintained in the range of 0.003125 to 256 μg/mL. Then, 2 μL of standard and clinically relevant overnight broth cultures of bacteria were inoculated into each well at a concentration of 5 × 10^6 CFU/mL. Microtiter plates were incubated at 37°C for one full day. Two groups were set up: positive (medium with inoculum) and negative (medium only) controls. The minimum bactericidal concentration (MBC) was measured in LB medium and refers to the first drug dilution value at which the initial bacterial concentration was reduced by 99.99%. The final analysis was determined by the results of three replicated and independent experiments. To further assess and clarify the antimicrobial activity of MccJ25, the protective ability against E. coli adhesion, live/dead assay, and killing curve were performed, the detailed methods were provided in Supplementary Materials .
# E. coli 987P = tested on: E. coli 987P
# Description: as §1
# E. coli AZ1 = settings: source pig tissue
# Description: as §1
# E. coli BRO 134 = settings: source broiler stool
# Description: as §1
# E. coli BRO 477 = settings: source broiler stool
# Description: as §1
# E. coli CATT921A-1 = settings: source mastitis pathogens
# Description: as §1
# E. coli CVCC1522 = tested on: E. coli CVCC1522
# Description: as §1
# E. coli CVCC1543 = tested on: E. coli CVCC1543
# Description: as §1
# E. coli K88 = tested on: E. coli K88
# Description: as §1
# E. coli K99 = tested on: E. coli K99
# Description: as §1
# E. coli LKFZ F2 = settings: source pig stool
# Description: as §1
# E. coli SWI 437 = settings: source pig stool
# Description: as §1
# E. coli SWI 535 = settings: source pig tissue
# Description: as §1
# E. coli WWE921A-2 = settings: source pig tissue
# Description: as §1
# Salmonella CATT LX1 = settings: source mastitis pathogens
# Description: as §1
# Salmonella CATT LX2 = settings: source mastitis pathogens
# Description: as §1
# Salmonella CATT LX5 = settings: source mastitis pathogens
# Description: as §1
# Salmonella CATT LX9 = settings: source mastitis pathogens
# Description: as §1
# Salmonella CATT W14 = settings: source mastitis pathogens
# Description: as §1
# [1] = LB medium, 99.99% reduction, three independent experiments
# [2] = broth dilution in MHB, 37°C, one day, three independent experiments
# [3] = broth dilution in MHB, 37°C, three independent experiments
smiles,measurement,setting,value
"CC[C@H](C)[C@H](NC(=O)CNC(=O)[C@@H](NC(=O)[C@H](Cc1ccccc1)NC(=O)[C@H](Cc1ccc(O)cc1)NC(=O)[C@@H]1CCC(=O)NCC(=O)NCC(=O)N[C@@H](C)C(=O)NCC(=O)N[C@@H](Cc2c[nH]cn2)C(=O)N[C@@H](C(C)C)C(=O)N2CCC[C@H]2C(=O)N1)C(C)C)C(=O)NCC(=O)N[C@H](C(=O)N1CCC[C@H]1C(=O)N[C@H](C(=O)N[C@@H](CO)C(=O)N[C@@H](Cc1ccccc1)C(=O)N[C@@H](Cc1ccc(O)cc1)C(=O)NCC(=O)O)[C@@H](C)CC)[C@@H](C)O [MccJ25, microcin J25] (GGAGHVPEYFVGIGTPISFYG-OH; lactam N-8 (inferred); C-terminus assumed)",MBC,"E. coli 521ZQE; LB medium, 99.99% reduction",2.000 µg/mL
same,MIC,"E. coli 521ZQE; broth dilution in MHB, 37°C",0.250 µg/mL
same,MBC,E. coli 987P; [1],0.500 µg/mL
same,MIC,E. coli 987P; [2],0.030 µg/mL
same,MIC/MBC,E. coli 987P; ratio,0.060
same,MBC,E. coli AZ1; [1],1.000 µg/mL
same,MIC,E. coli AZ1; [3],0.500 µg/mL
same,MIC/MBC,E. coli AZ1; ratio,0.500
same,MBC,E. coli BRO 134; [1],2.000 µg/mL
same,MIC,E. coli BRO 134; [3],0.250 µg/mL
same,MIC/MBC,E. coli BRO 134; ratio,0.125
same,MBC,E. coli BRO 477; [1],1.000 µg/mL
same,MIC,E. coli BRO 477; [3],0.500 µg/mL
same,MIC/MBC,E. coli BRO 477; ratio,0.500
same,MBC,E. coli CATT921A-1; [1],2.000 µg/mL
same,MIC,E. coli CATT921A-1; [3],0.250 µg/mL
same,MIC/MBC,E. coli CATT921A-1; ratio,0.125
same,MBC,E. coli CVCC1522; [1],0.500 µg/mL
same,MIC,E. coli CVCC1522; [2],0.03 µg/mL and 0.030 µg/mL
same,MIC/MBC,E. coli CVCC1522; ratio,0.060
same,MBC,E. coli CVCC1543; [1],0.250 µg/mL
same,MIC,E. coli CVCC1543; [2],0.03 µg/mL and 0.030 µg/mL
same,MIC/MBC,E. coli CVCC1543; ratio,0.120
same,MBC,E. coli K88; [1],0.500 µg/mL
same,MIC,E. coli K88; [2],0.250 µg/mL
same,MIC/MBC,E. coli K88; ratio,0.500
same,MBC,E. coli K99; [1],0.250 µg/mL
same,MIC,E. coli K99; [2],0.030 µg/mL
same,MIC/MBC,E. coli K99; ratio,0.120
same,MBC,E. coli LKFZ F2; [1],0.500 µg/mL
same,MIC,E. coli LKFZ F2; [3],0.250 µg/mL
same,MIC/MBC,E. coli LKFZ F2; ratio,0.500
same,MBC,E. coli SWI 437; [1],0.250 µg/mL
same,MIC,E. coli SWI 437; [3],0.030 µg/mL
same,MIC/MBC,E. coli SWI 437; ratio,0.120
same,MBC,E. coli SWI 535; [1],2.000 µg/mL
same,MIC,E. coli SWI 535; [3],0.500 µg/mL
same,MIC/MBC,E. coli SWI 535; ratio,0.250
same,MBC,E. coli WWE921A-2; [1],2.000 µg/mL
same,MIC,E. coli WWE921A-2; [3],1.000 µg/mL
same,MIC/MBC,E. coli WWE921A-2; ratio,0.500
same,MBC,Salmonella CATT LX1; [1],0.250 µg/mL
same,MIC,Salmonella CATT LX1; [3],0.060 µg/mL
same,MIC/MBC,Salmonella CATT LX1; ratio,0.240
same,MBC,Salmonella CATT LX2; [1],0.125 µg/mL
same,MIC,Salmonella CATT LX2; [3],0.030 µg/mL
same,MIC/MBC,Salmonella CATT LX2; ratio,0.240
same,MBC,Salmonella CATT LX5; [1],0.125 µg/mL
same,MIC,Salmonella CATT LX5; [3],0.030 µg/mL
same,MIC/MBC,Salmonella CATT LX5; ratio,0.240
same,MBC,Salmonella CATT LX9; [1],0.125 µg/mL
same,MIC,Salmonella CATT LX9; [3],0.060 µg/mL
same,MIC/MBC,Salmonella CATT LX9; ratio,0.480
same,MBC,Salmonella CATT W14; [1],0.250 µg/mL
same,MIC,Salmonella CATT W14; [3],0.060 µg/mL
same,MIC/MBC,Salmonella CATT W14; ratio,0.240

# From PMC8894198, “Biosynthetic Microcin J25 Exerts Strong Antibacterial, Anti-Inflammatory Activities, Low Cytotoxicity Without Increasing Drug-Resistance to Bacteria Target” (Frontiers in Immunology, 2022)
